Test results: patent publication US8853141B2, “Sulfomethylsuccinates, process for making same and compositions containing same” (Stepan Company, priority 2009, dated 2014)

Assay: Surface activity, K12 Krüss tensiometer, automatic titration for CMC
Assay type: physicochemical
Description: Surface activity was measured with a K12 Krüss tensiometer at 25° C. in deionized water. Automatic titration was used to determine the critical micelle concentration (CMC). No pH adjustment was made for the measurement.

dodecyl sulfosuccinate
critical micelle concentration (CMC): about 120 mg/L
